In US11917959B2, “Multi-ear system to enhance monocot plant yield” (Monsanto Technology LLC, priority 2015, dated 2024):

Columns and labels:
Type in all cases: in vivo
[1] = tested on: maize inbred lines Germplasm A and LH244; experiment: Co-dominant ear induction in diploid maize inbreds (Example 5); conditions: for Ave. Ears Per Plant / Ave. Total Kernels Per Plant: Treated
Experimental: Seeds of maize inbred lines Germplasm A and LH244 were planted in soil, germinated, and then transplanted to 10-inch pots after approximately one week, one seedling per pot. The plants were subjected to a co-dominant ear induction treatment at the V8 stage comprising drenching the soil surrounding the roots of each plant with 50 mL of a 2.5% PBZ solution (v/v; 0.4% of active ingredient). The plants were tended in a greenhouse until sexual maturity, then they were self-pollinated. When seed set had completed, the number of co-dominant ears, and the total number of kernels, produced by each plant were counted. Control plants for each germplasm were processed in the same way as the treated groups, except that the control plants were not subjected to the co-dominant ear induction treatment.

[2] = tested on: diploid maize plants of a common inbred line; experiment: Tiller induction in diploid maize (Example 6)
Experimental: Diploid maize plants of a common inbred line were subjected to a tiller induction treatment comprising drenching the soil surrounding the roots with 100 mL of a 2.5% PBZ solution (v/v; 0.4% of active ingredient) approximately one week after germination and then allowed to grow to sexual maturity in 10-inch pots a greenhouse. A control group of plants were grown under identical circumstances except that they were not subjected to the tiller induction treatment.
Three treatment groups were then formed from the tillers: tillers of the “Co-hab” treatment were allowed to continue growing in the same pot with the mother plant; those of the “-Mother” treatment also remained in the same pot, but the mother plant was removed from the pot; and those of the “Transplanted” treatment group were transplanted from the pot containing the mother plant into separate 10-inch pots, one plant per pot. Any naturally-occurring tillers produced by the control group were allowed to grow in the same pot as the mother plant, similar to the co-hab treatment. All plants were allowed to grow to sexual maturity and self-pollinated when silks and tassels formed. When seed set was complete, the average total number of seeds produced by all plants deriving from the same mother plant seed were counted and plotted in FIG. 3.

haploid mother plant = experiment: Tiller induction in doubled haploid maize (Example 7)
Experimental: A haploid mother plant will be subjected to doubling treatment and thereafter planted in a pot, the soil surrounding the roots drenched with 100 mL of 2.5% of paclobutrazol, and then tended standard maize greenhouse growing conditions for several days. […] One of the resulting daughter tiller plants can be separated from the mother plant, transplanted into a separate pot, and grown via standard greenhouse management procedures to eventually recover a daughter plant with normal haploid morphology.

[3] = Germplasm A, 50 mL 2.5% PBZ at V8

CC(C)(C)[C@@H](O)[C@@H](Cc1ccc(Cl)cc1)n1cncn1 (relative stereo) [PBZ, (±)-(R*, R*)-beta-((4-chlorophenyl)methyl)-alpha-(1,1,-dimethylethyl)-1H-1,2,4,-triazole-1-ethanol]
Ave. Ears Per Plant [1, 3]: 8 | Ave. Total Kernels Per Plant [1, 3]: 1677 | Ave. Ears Per Plant ([1]; LH244, 50 mL 2.5% PBZ at V8): 5.1 | Ave. Total Kernels Per Plant ([1]; LH244, 50 mL 2.5% PBZ at V8): 1126 | average total kernels per plant and average ears per plant, treated vs control ([1]; both germplasms): more than doubling | effect on mother plants ([2]; 100 mL 2.5% PBZ soil drench): shortened internodes, and induced the mother plants to produce tillers | number of seeds vs control group ([2]; transplanted treatment group, 100 mL 2.5% PBZ one week after germination): more than twice | DH1 seeds yielded by transplanted daughter tiller plant when selfed (haploid mother plant; 100 mL of 2.5% paclobutrazol): several dozen | effect on mother plant (haploid mother plant; 100 mL of 2.5% paclobutrazol soil drench after doubling treatment): shortened internodes and increased tiller production
